From ChEMBL document CHEMBL4715788, “Hit-to-Lead Optimization of Mouse Trace Amine Associated Receptor 1 (mTAAR1) Agonists with a Diphenylmethane-Scaffold: Design, Synthesis, and Biological Study” (J Med Chem, 2016)
pEC50: −log10 of the molar value. Activity calls are given as the source filed them. No cut-off for these calls is given here.

Assays:
[1] = target: Trace amine-associated receptor 1 (Mus musculus, UniProt Q923Y8); assay: Agonist activity at mouse TAAR1 expressed in HEK293T cells assessed as induction of cAMP production by BRET assay; format: functional, cell-based
[2] = target: Trace amine-associated receptor 1 (Mus musculus) (UniProt Q923Y8); assay: Agonist activity at mouse TAAR1 expressed in HEK293T cells assessed as induction of cAMP production by BRET assay relative to control; format: functional, cell-based; settings: filed as agonist
HepG2 [3] = assay: Hyperglycemic activity in human HepG2 cells incubated for 4 hrs by colorimetric glucose assay; format: functional, cell-based; settings: HepG2, 4 h
Mus musculus = assay: Increase in plasma glycaemia in CD1 mouse at 4.0 ug/kg, ip measured after 15 mins; format: functional, organism-based
HepG2 [4] = assay: Increase in glucose production in human HepG2 cells at incubated for 4 hrs by colorimetric glucose assay; format: functional, cell-based
HepG2 [5] = assay: Inhibition of glucose production in human HepG2 cells at 10 uM incubated for 4 hrs by colorimetric glucose assay; format: functional, cell-based
HepG2 [6] = assay: Increase in glucose production in human HepG2 cells at 0.1 to 1 uM incubated for 4 hrs by colorimetric glucose assay; format: functional, cell-based; settings: dose 0.1-1 µM

Chain of Trace amine-associated receptor 1 (Mus musculus) (Q923Y8 whole entry): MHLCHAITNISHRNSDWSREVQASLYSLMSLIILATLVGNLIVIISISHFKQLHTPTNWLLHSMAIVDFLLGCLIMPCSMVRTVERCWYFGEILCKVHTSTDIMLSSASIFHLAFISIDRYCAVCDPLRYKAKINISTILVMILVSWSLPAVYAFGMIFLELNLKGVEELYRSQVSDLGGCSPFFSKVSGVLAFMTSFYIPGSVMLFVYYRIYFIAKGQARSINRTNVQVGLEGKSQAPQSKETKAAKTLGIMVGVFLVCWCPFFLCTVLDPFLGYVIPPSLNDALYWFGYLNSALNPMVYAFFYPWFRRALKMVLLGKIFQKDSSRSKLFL
Chain of Trace amine-associated receptor 1 (Q923Y8 whole entry): as above

SMILES	pEC50 [1]	Efficacy [2] [%]	further results
Cc1cc(CCN)ccc1-c1ccc(N)cc1	5.93	100	
CC(=O)NCCOc1ccc(Cc2ccc(NC(C)=O)cc2)c(C)c1	< 5.00		
NCCc1ccc(Oc2ccc(O)cc2)c(I)c1			pEC50 (HepG2 [3]): 6.08
Cc1cc(CCN)cc(C)c1-c1ccc(N)cc1	6.20	100	
CCN(C(C)=O)c1ccc(Cc2ccc(CCN)cc2C)cc1C(C)C	6.36	100	
CC(=O)NCCOc1ccc(Cc2ccc(NC(C)=O)cc2)cc1	< 5.00		
CC(=O)Nc1ccc(Cc2ccc(OCCN)cc2C)cc1	< 5.00		
CCNc1ccc(Cc2ccc(CCN)cc2C)cc1C(C)C	6.99	100	
Cc1cc(CCN)ccc1Cc1ccc(N)cc1	6.92	100	Activity (Mus musculus): Active; Activity (HepG2 [4]): Dose-dependent effect
CCN(C(C)=O)c1ccc(Cc2ccc(CCNC(C)=O)cc2C)cc1C(C)C	< 5.00	100	
CC(=O)Nc1ccc(Cc2ccc(OCCNC(=N)NC(=N)N)cc2C)cc1	< 5.00		
Cc1cc(CCN)ccc1Cc1ccc(O)cc1	7.01	100	inhibition (HepG2 [5]): Active; Activity (Mus musculus): Active; Activity (HepG2 [6]): Active
CC(=O)Nc1ccc(Cc2ccc(CCN)cc2C)cc1	5.51	100	
Cc1cc(CCN)cc(C)c1Cc1ccc(N)cc1	6.80	100	
Cc1cc(OCCNC(=N)NC(=N)N)ccc1Cc1ccc(N)cc1	< 5.00		
Cc1cc(OCCN)cc(C)c1Cc1ccc(N)cc1	6.87	100	
CC(=O)Nc1ccc(Cc2ccc(OCCN)cc2)cc1	< 5.00		
